Test results taken from patent US12623942B2, “Method for extracting salts and temperature- regenerated extracting composition” (ADIONICS, priority 2016, dated 2026).
Values after ≈ are worked out from the molar mass of the structure shown.

Legend:
Solubility in water = assay type: physicochemical
Text: The hydrophoby or the solubility in water of a compound may be measured by standard methods and, especially, by UV/visible spectroscopy.

[1] = Complexing constant Log K in methanol at 25° C.; assay type: binding
Description: K is the complexing constant of a CEM and a […] cation in methanol, at 25° C., which is measured according to the standard method of isothermal calorimetric titration.

[2] = Liquid-liquid extraction of mono-salt saline solution; conditions: for Extraction rate at room temperature (RT), BaCl2 / Extraction rate at room temperature (RT), CaCl2 / Extraction rate at room temperature (RT), KCl / Extraction rate at room temperature (RT), LiCl / Extraction rate at room temperature (RT), MgCl2 / Extraction rate at room temperature (RT), NaCl / Extraction rate at room temperature (RT), SrCl2: 0.1M CEM + 3.52M ASM2 in CH2Cl2, initial salt 0.1 mol/L, Org./Water = 1, molar %
Text: The extracting composition is obtained by solubilizing an amount of CEM and ASM in the selected fluidizing agent, dichloromethane CH2Cl2, dichlorobenzene or dichlorotoluene or any other fluidizing agent able to well solubilize the mixture CEM/ASM in order to obtain the searched final concentrations after solubilizing CEMs and ASMs in a minimum of 3 milliliters of fluidizing agent. If the selected fluidizing agent is also an ASM compound, so the selected ASM volume is at least 3 milliliters. The given concentrations of ASM2 and ASM9 are related to the added fluidizing agent volume and the concentrations of CEM are related to the added fluidizing agent+ASM volume. The extracting organic composition is then lightly heated so as to promote the solubilization of the organic compounds by means of a heat gun (temperature around 50 to 60° C.) for a few seconds (10 to 30 seconds) until a clear solution is obtained. The composition is thus left for 24 hours at room temperature so as to make sure that the obtained formulation is stable.
These sealed formulations are then orbitally stirred at 500 revolutions/minute for two hours after adding an equivalent volume of water which was distilled twice so as to allow a water saturation of the whole formulation and a pH control at the inlet and at the outlet (pH close to 7, or at least maintained after contact with the saturation water).
3 mL of the prepared extracting organic composition are then taken from the lower phase of the decanted diphasic mixture and transferred to a vial containing 3 mL of the water containing the one or more considered chloride salts (NaCl or others), then the vial is sealed and orbitally stirred (at 500 revolutions per minute) for 2 hours at room temperature (RT), that is to say between 20 and 25° C.
A verification is made to make sure that droplets in the range of 1-2 mm are really present during these stirrings in order to be sure that an equilibrium in the distribution of the considered chloride salt (NaCl or other) is achieved between both liquid phases at the end of stirring. The aspect of the organic and aqueous phases is clear and colorless or slightly turbid.
Once the 2-hour stirring is carried out, the stirring is stopped and the whole is left for decantation for about 10 minutes, at least until both phases are completely separated, at the temperature of the assay. Then, the upper aqueous phase is taken then stirred and diluted in order to analyze its salinity by a ion chromatography (a Metrohm™ device including a cation analyzing column and an anion analyzing column suitable for the ions and for the concentration of the salts which are searched for). Likewise, the chloride salt (NaCl or other) initial aqueous solution is also analyzed by this ion chromatography to determine its cation and chloride molar relative concentration before the extraction. All the extractions and analyses were duplicated.
The considered extracting composition comprises 0.1 mol/L of CEM1 and 3.52 mol/L of ASM2 in dichloromethane CH2Cl2, which was obtained as described above. The initial concentration of the considered salt in water, whether it is LiCl, NaCl, KCl, MgCl2, CaCl2, SrCl2 or BaCl2, is 0.1 mol/L.
After carrying out these 7 specific extractions (duplicated) of salts, the amounts of extracted cations in relative molar percentage before and after extraction at room temperature and at water/extracting formulation iso-volume are indicated in table I: […]

[3] = mono-salt solutions, 0.1M CEM + 3.52M ASM2 in CH2Cl2, RT

## OCc1cccc(C(F)(F)F)c1 [ASM1, 3-(trifluoromethyl)benzyl alcohol]
Solubility in water
  Solubility in water: 32000 µM (≈ 5640 µg/mL)

## OCc1cc(C(F)(F)F)cc(C(F)(F)F)c1 [ASM2, [3,5-Bis(Trifluoromethyl)phenyl]methanol]
Solubility in water
  Solubility in water: 2290 µM (≈ 559 µg/mL)

## OCc1cc(C(F)(F)C(F)(F)C(F)(F)C(F)(F)F)cc(C(F)(F)C(F)(F)C(F)(F)C(F)(F)F)c1 [ASM3]
Solubility in water
  Solubility in water: 0.5 µM (≈ 0.272 µg/mL)

## OCc1cc(C(F)(F)F)c(C(F)(F)F)c(C(F)(F)F)c1 [ASM4]
Solubility in water
  Solubility in water: 390 µM (≈ 122 µg/mL)

## CC(O)c1cccc(C(F)(F)C(F)(F)C(F)(F)F)c1 (stereo not shown) [ASM5]
Solubility in water
  Solubility in water: 420 µM (≈ 122 µg/mL)

## CCCC(O)c1cc(C(F)(F)F)cc(C(F)(F)F)c1 (stereo not shown) [ASM7]
Solubility in water
  Solubility in water: 480 µM (≈ 137 µg/mL)

## OC(c1cccc(C(F)(F)F)c1)c1cccc(C(F)(F)F)c1 [ASM8]
Solubility in water
  Solubility in water: 70 µM (≈ 22.4 µg/mL)

## CCOC(=O)COc1c2cc(C(C)(C)C)cc1Cc1cc(C(C)(C)C)cc(c1OCC(=O)OCC)Cc1cc(C(C)(C)C)cc(c1OCC(=O)OCC)Cc1cc(C(C)(C)C)cc(c1OCC(=O)OCC)C2 [CEM10, 4-tert-Butylcalix[4]arene-tetraacetic acid tetraethyl ester]
[1]
  Log K(Cs^+, MeOH, 25° C.): 2.7
  Log K(K^+, MeOH, 25° C.): 2.4
  Log K(Li^+, MeOH, 25° C.): 2.6
  Log K(Na^+, MeOH, 25° C.): 5.0
  Log K(Rb^+, MeOH, 25° C.): 3.1
[2]
  Extraction rate at room temperature (RT), BaCl2: 3.7%
  Extraction rate at room temperature (RT), CaCl2: 4.7%
  Extraction rate at room temperature (RT), KCl: 14.4%
  Extraction rate at room temperature (RT), LiCl: 5.5%
  Extraction rate at room temperature (RT), MgCl2: 5.1%
  Extraction rate at room temperature (RT), NaCl: 66.2%
  Extraction rate at room temperature (RT), SrCl2: 5.9%
[2]; [3]
  Na/Ca selectivity: 14

## CCOC(=O)COc1c2cc(C(C)(C)C)cc1Cc1cc(C(C)(C)C)cc(c1OCC(=O)OCC)Cc1cc(C(C)(C)C)cc(c1OCC(=O)OCC)Cc1cc(C(C)(C)C)cc(c1OCC(=O)OCC)Cc1cc(C(C)(C)C)cc(c1OCC(=O)OCC)Cc1cc(C(C)(C)C)cc(c1OCC(=O)OCC)C2 [CEM12, 4-tert-Butylcalix[6]arene-hexaacetic acid hexaethyl ester]
[2]
  Extraction rate at room temperature (RT), BaCl2: 11.8%
  Extraction rate at room temperature (RT), CaCl2: 5.5%
  Extraction rate at room temperature (RT), KCl: 55.7%
  Extraction rate at room temperature (RT), LiCl: 9.0%
  Extraction rate at room temperature (RT), MgCl2: 5.4%
  Extraction rate at room temperature (RT), NaCl: 29.6%
  Extraction rate at room temperature (RT), SrCl2: 4.6%
[2]; [3]
  K/Ca selectivity: 10.2

## CC(C)(C)c1cc2c(OCC(=O)N3CCCC3)c(c1)Cc1cc(C(C)(C)C)cc(c1OCC(=O)N1CCCC1)Cc1cc(C(C)(C)C)cc(c1OCC(=O)N1CCCC1)Cc1cc(C(C)(C)C)cc(c1OCC(=O)N1CCCC1)C2 [CEM 4, 4-tert-butyl-Calix[4]arene tetrakis(N-pyrrolidinylacetamide)]
[1]
  Log K(Ba^++, MeOH, 25° C.): 6.8
  Log K(Ca^++, MeOH, 25° C.): 7.8
  Log K(Cs^+, MeOH, 25° C.): 1.0
  Log K(K^+, MeOH, 25° C.): 5.4
  Log K(Li^+, MeOH, 25° C.): 3.0
  Log K(Mg^++, MeOH, 25° C.): 1.2
  Log K(Na^+, MeOH, 25° C.): 7.2
  Log K(Rb^+, MeOH, 25° C.): 3.0
  Log K(Sr^++, MeOH, 25° C.): 8.1

## CCN(CC)C(=O)COc1c2cc(C(C)(C)C)cc1Cc1cc(C(C)(C)C)cc(c1OCC(=O)N(CC)CC)Cc1cc(C(C)(C)C)cc(c1OCC(=O)N(CC)CC)Cc1cc(C(C)(C)C)cc(c1OCC(=O)N(CC)CC)Cc1cc(C(C)(C)C)cc(c1OCC(=O)N(CC)CC)Cc1cc(C(C)(C)C)cc(c1OCC(=O)N(CC)CC)Cc1cc(C(C)(C)C)cc(c1OCC(=O)N(CC)CC)Cc1cc(C(C)(C)C)cc(c1OCC(=O)N(CC)CC)C2 [CEM 9, 4-tert-butyl-Calix[8]arene octakis(N,N-diethylacetamide)]
[1]
  Log K(Ca^++, MeOH, 25° C.): 7.2

## CCOC(=O)COc1c2cc(C(C)(C)C)cc1Cc1cc(C(C)(C)C)cc(c1OCC(=O)OCC)Cc1cc(C(C)(C)C)cc(c1OCC(=O)OCC)Cc1cc(C(C)(C)C)cc(c1OCC(=O)OCC)Cc1cc(C(C)(C)C)cc(c1OCC(=O)OCC)C2 [CEM 11, 4-tert-Butylcalix[5]arene-pentaacetic acid pentaethyl ester]
[1]
  Log K(Cs^+, MeOH, 25° C.): 5.5
  Log K(K^+, MeOH, 25° C.): 5.3
  Log K(Li^+, MeOH, 25° C.): 1.0
  Log K(Na^+, MeOH, 25° C.): 4.4
  Log K(Rb^+, MeOH, 25° C.): 5.6
